Holding throughout (assay type): cell-based, human
One data set relates to BT20 breast cancer cells. In words: Cytotoxic activity of oxovanadium(IV) compounds, BT20. The note with it: read-out: Cytotoxic Activity BT20. The procedure, abridged:
(§1)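 Tumour cells in log growth are seeded, then incubated 48 hours with compound spanning 0.1 to 250 μM. Viable cells reduce MTT (0.5 mg/ml final, 4 hours) to formazan, which is measured at 540 nm and translated to cell number via standard curves for each line.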

For data set [1], the system named is 64cp5 testicular cancer cells. In words: Cytotoxic activity of oxovanadium(IV) compounds, 64cp5. The note with it: read-out: Cytotoxic Activity 64cp5. The procedure, abridged: as §1
In a further data set the test system is U373 glioblastoma cells. Briefly: Cytotoxic activity of oxovanadium(IV) compounds, U373. The note with it: read-out: Cytotoxic Activity U373. The procedure, abridged:
as §1

In data set [2] the test system is 833-K testicular cancer cells. Briefly: Cytotoxic activity of oxovanadium(IV) compounds, 833-K. Particulars: read-out: Cytotoxic Activity 833-K. Summed up: as §1
The subject of data set [3] is Ntera-2 testicular cancer cells. In words: MTT cytotoxicity assay of vanadocenes, NTERA-2 cells. Particulars: 24 h, 1.9-250 μM. The procedure, abridged: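 Cells seeded in triplicate, after 24 h exposed to two-fold serial dilutions of vanadocenes (1.9–250 μM; DMSO vehicle, 0.25% DMSO control) for 24 h. MTT added for 4 h at 37 °C, formazan dissolved in SDS/HCl overnight, OD read at 540 nm; IC50 values reported.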
On the technique in general: Tetrazolium assays rely on reduction of a dye to a coloured formazan, in cell work by metabolically active cells.

For data set [4], the system named is NALM-6 B-lineage acute lymphoblastic leukemia cells. Briefly: MTT cytotoxicity assay of vanadocenes, NALM-6 cells. The note with it: 24 h. The procedure:
Human testicular cancer cell lines, Tera-2 (embryonal carcinoma) and Ntera-2 (pluripotent embryonal carcinoma) were obtained from the American Type Culture Collection (ATCC) (Rockeville, Md.) and propagated in T-25, T-75, or T-150 cm^2 tissue culture flasks (Corning Corp., Corning, N.Y.) in McCoy's 5A medium and Dulbecco's modified Eagle's medium respectively. Both media were supplemented with 10% fetal calf serum (FCS), 4 mM glutamine, 100 U/ml penicillin G, and […] streptomycin sulfate. All tissue culture reagents were obtained from Life Technologies Inc. (GIBCO-BRL), Gaithersburg, Md. Cell lines were cultivated for a minimum of two passages after thawing prior to experimentation. Other cell lines that were used in this study were the human B-lineage acute lymphoblastic leukemia (ALL) cell line NALM-6. Uckun, F. M., Evans, W. E., Forsyth, C. J., Waddick, K. G., Tuel-Ahlgren, L., Chelstrom, L. M., Burkhardt, A., Bolen, J., Myers, D. E. Biotherapy of B-cell precursor leukemia by targeting genistein to CD19-associated tyrosine kinase. Science (Washington DC) 267:886–91, 1995; T-lineage ALL cell line MOLT-3, Waurzyniak, B., Shneider, E. A., Tumer, N., Yanishevski, Y., Gunther, R., Chelstrom, L., Wendorf, H., Myers, D. E., Irvin, J. D., Messinger, Y., Ek, O., Zeren, T., Chandan-Langlie, M., Evans, W. E., Uckun, F. M. In vivo toxicity, pharmacokinetics, and antileukemic activity of TXU (anti-CD7)-pokeweed antiviral protein immunotoxin. Clinical Cancer Research 3:881–890, 1997; AML cell line HL-60, Perentesis, J. P., Waddick, K. G., Bendel, A. E., Shao, Y., Warman, B. E., Chandan-Langlie, M., and Uckun, F. M. Induction of apoptosis in multi-drug resistant andradiation-resistant acute myeloid leukemia cells by a recombinant fusion toxin directed against the granulocyte macrophage colony stimulating factor receptor. Clin. Cancer Res. 3:347–355, 1997; breast cancer cell lines MDA-MB-231 and BT-20, Uckun, F. M., Narla, R. K., Jun, X., Zeren, T., Venkatachalam, T., Waddick, K. G., Rostostev, A., Myers, D. E. Cytotoxic activity of EGF-genstein against breast cancer cells. Clin. Cancer Res. 4:901–912, 1998; glioblastoma cell lines U87 and U373, Narla, R. K., Liu, X., Myers, D. E., and Uckun, F. M. 4-(3′-Bromo-4′hydroxylphenyl)-amino-6,7-dimethoxyquinazoline (WHI-P154): A novel quinazoline derivative with potent cytotoxic activity against human glioblastoma cells. Clin. Cancer Res. 4:1405–1414, 1998.
MTT (3-[4,5-dimethyl thiazol-2-yl]-2,5-diphenyltetrazolium bromide)-based colorimetric assays were used for evaluation of the cytotoxicity of vanadocene compounds. Mosmann, T. Rapid colorimetric assay for cellular growth and survival: application to proliferation and cytotoxicity assays. J. Immunol. Methods, 65: 55–63, 1983. Briefly, cells were harvested with 0.125% (w/v) trypsin-0.02% EDTA (GIBCO-BRL) from exponential-phase maintenance cultures and centrifuged (300 g×5 min). After suspension and counting, cells were dispensed within triplicate 96-well tissue culture plates in 100 μl volumes. After 24 h incubation, the culture medium was discarded and replaced with 100 μl of fresh medium containing serial two-fold dilutions of drugs in medium to yield 1.9 μM to 250 μM. All compounds were reconstituted in DMSO to a concentration of 100 mM, and the stock solution was made fresh for each experiment. Control wells consisted of medium containing 0.25% of DMSO alone were used for solvent control. […]

Consider two molecules from patent US7091351B2, “Vanadium compounds for treating cancer” (Parker Hughes Institute, priority 1998, dated 2006).

pIC50: −log10 of the molar value.

Regarding “bis(4,7-dimethyl-1,10-phenanthroline)sulfatooxovanadium(IV) [Compound 29]”, the pIC50 is 5.82 in the data set with BT20 breast cancer cells, 6.12 in data set [1], 5.74 in the data set on U373 glioblastoma cells and 6.07 in data set [2].
Regarding `[Cl-].[Cl-].[V+4].c1cc[cH-]c1.c1cc[cH-]c1` [VDC, VCp2Cl2], the values for the pIC50 in data set [3] and in data set [4] were 4.13 and 4.72, respectively.
